Measured values as given in ChEMBL document CHEMBL1157865, “Synthesis and evaluation of SQ109 analogues as potential anti-tuberculosis candidates” (2010).
In brackets after ≈: the same amount, converted by molar mass.

Test system: Mycobacterium tuberculosis
Assay: Antimycobacterial activity against multidrug-resistant Mycobacterium tuberculosis XDR 173 by BACTEC 460 radiometric method
Type: functional

SMILES	MIC [µM]
CC(C)CCCC(C)CCCC(C)CCNCCNC1C2CC3CC(C2)CC1C3 (centres undefined)	1 (≈ 0.405 µg/mL)
CC(C)CCCC(C)CCNCCNC12CC3CC(CC(C3)C1)C2 (centres undefined)	0.5 (≈ 0.167 µg/mL)
CC(C)=CCC/C(C)=C/CC/C(C)=C/CNCCNC1C2CC3CC(C2)CC1C3 (centres undefined)	0.25 (≈ 0.0997 µg/mL)
CC(C)=CCC/C(C)=C/CNCCNC1C2CC3CC(C2)CC1C3 (centres undefined) [SQ109]	0.5 (≈ 0.165 µg/mL)
